Experimental data from patent US4795808A, “Anthracycline tetrasaccharides” (Hoechst Aktiengesellschaft, priority 1985, dated 1989).

Test system: L1210 leukemia cells
Assay: cell proliferation test on L1210 leukemia cells (C14-thymidine incorporation)
Format: cell-based
Conditions: Mus musculus, 72 hours, 37° C., 5% of CO2, concentration which reduces incorporation of radioactive thymidine by 50% vs control
Procedure: The inhibiting action was determined (cell proliferation test) as described below:
[…] cells in the exponential growth phase (5×10^3 /ml in RPMI 1640) are incubated in a microtiter plate with different concentrations of the test substance for 72 hours (37° C., 5% of CO2, 95% relative atmospheric humidity). Controls comprise cells incubated only with fresh medium. All the determinations are carried out as 4-fold determinations. After 65 hours, 50 μl of C14-thymidine (1.5 μC/ml) are added in order to radiolabel the cell DNA. After incubation for 7 hours, the cells are filtered off with suction and the DNA is precipitated with 5% strength trichloroacetic acid and washed with water and methanol in succession. After drying at 50° C., the radioactivity incorporated into the DNA is determined after addition of 5 ml of scintillation liquid. The results are stated as ratios of the scintillation index after incubation with the test substance in percent of the untreated control. From the measurement values thus obtained, the dose/effect curve is determined, and the IC50, that is to say the concentration which reduces the incorporation of radioactive thymidine by 50% under test conditions in comparison with the control, is determined graphically.

With CCC1(O)CC(OC2CC(N(C)C)C(OC3CCC(OC4C=CC(=O)C(C)O4)C(C)O3)C(C)O2)c2c(O)c3c(c(O)c2C1OC1CC(N(C)C)C(O)C(C)O1)C(=O)c1cccc(O)c1C3=O (stereo not shown) [cytorhodin SE gluconate] the IC50 was 6 ng/mL.
